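Method: 48-hour compound exposure of cells in 96-well plates, five concentrations, linear interpolation of endpoints. Abbreviation: GI50, concentration required for 50% inhibition of growth.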 Active and inactive are the calls of the source. Cut-off read from the data, not from the text of the source: active = GI50 up to about 1.1 µM and inactive = higher. Where a SMILES comes first, the peptide text is derived from it. The star is where a group is joined. Boc = CC(C)(C)OC(=O)*

Here are results for eleven compounds from ChEMBL document CHEMBL1201862, “PubChem BioAssay data set” (2004).

Some test systems named below: HCT-15; UO-31; OVCAR-3; ACHN; EKVX; BT-549; MOLT-4; M14; OVCAR-4; MDA-MB-231; IGROV-1; T47D; NCI-H522; HCT-116; UACC-257; NCI/ADR-RES; SNB-19; HOP-62; PC-3; OVCAR-5.
Common to all, as to experiment: NCI-60 cell line screen, 48 h

As to `CCN(C(=O)N[C@@H](C)C(=O)N[C@@H](Cc1ccccc1)C(=O)OC)c1ccccc1`, the GI50 was 70.8 µM in the assay on HCT-15; 31.7 µM (inactive) in the assay on UO-31; 54.2 µM (inactive) in the assay on OVCAR-3; > 100 µM (inactive) in the assay with ACHN; > 100 µM (inactive) in the assay on EKVX; > 100 µM (inactive) in the assay with BT-549. In addition, the GI50 in the assay with MOLT-4 was > 100 µM (inactive); with M14 it was 34.4 µM (inactive); in the assay on OVCAR-4, 68.4 µM (inactive); in the assay with MDA-MB-231, > 100 µM (inactive); in the assay with IGROV-1 it was 44.7 µM (inactive); with T47D it was 56.8 µM (inactive). For the same compound, the GI50 was 71.6 µM (inactive) with NCI-H522; > 100 µM (inactive) with HCT-116; 49.1 µM (inactive) with UACC-257; > 100 µM (inactive) with NCI/ADR-RES; > 100 µM (inactive) in the assay with SNB-19; > 100 µM (inactive) in the assay with HOP-62. In addition, the GI50 with PC-3 and with OVCAR-5 was > 100 µM (inactive) in each case.
With `CCOC(=O)C(=[N+]=[N-])C(=O)CSC#N`, the GI50 is 51.4 µM in the assay on HCT-15; 31.2 µM (inactive) with UO-31; 22.3 µM (inactive) in the assay with ACHN; > 100 µM (inactive) in the assay with EKVX; 86.9 µM (inactive) in the assay with BT-549; 39.2 µM (inactive) in the assay on MOLT-4. Moreover, the GI50 was 23.8 µM (inactive) with M14; 40.6 µM (inactive) in the assay with OVCAR-4; 82.2 µM (inactive) with MDA-MB-231; > 100 µM (inactive) in the assay with IGROV-1; > 100 µM (inactive) with T47D; 24.4 µM (inactive) in the assay with NCI-H522. In addition, the GI50 in the assay with HCT-116 is 33 µM (inactive); in the assay on UACC-257 it was 71.4 µM (inactive); with NCI/ADR-RES it was 96.4 µM (inactive); with SNB-19, 97.5 µM (inactive); with HOP-62, > 100 µM (inactive); with PC-3, > 100 µM (inactive). Also, in the assay with OVCAR-5, the GI50 was > 100 µM (inactive).
For the compound `C[N+](C)(N)Cc1csc(-c2ccc(Cl)cc2)n1`, the GI50 is over 100 µM in the assay with HCT-15; > 100 µM (inactive) in the assay with UO-31; 89.5 µM (inactive) in the assay on OVCAR-3; > 100 µM (inactive) in the assay on ACHN; 64.3 µM (inactive) in the assay with EKVX; 34 µM (inactive) in the assay on BT-549. Besides, the GI50 in the assay on M14 was > 100 µM (inactive); with OVCAR-4 it was > 100 µM (inactive); in the assay on MDA-MB-231 it was > 100 µM (inactive); with IGROV-1 it was > 100 µM (inactive); in the assay with T47D, 80 µM (inactive); in the assay on NCI-H522 it was 62.4 µM (inactive). In addition, the GI50 with HCT-116 is > 100 µM (inactive); with UACC-257, > 100 µM (inactive); in the assay on NCI/ADR-RES, > 100 µM (inactive); in the assay on SNB-19, > 100 µM (inactive); with HOP-62, 75.7 µM (inactive); with PC-3, > 100 µM (inactive). The GI50 in the assay on OVCAR-5 was > 100 µM (inactive).
Consider `O=C1NN=C(O)C2C3c4ccccc4C(c4ccccc43)C12` (stereo not drawn), for which the GI50 was over 100 µM with HCT-15; > 100 µM (inactive) in the assay with UO-31; > 100 µM (inactive) in the assay with OVCAR-3; > 100 µM (inactive) with ACHN; > 100 µM (inactive) with EKVX; > 100 µM (inactive) with BT-549. Moreover, the GI50 in the assay on MOLT-4, in the assay with M14, in the assay on OVCAR-4, in the assay on MDA-MB-231, in the assay with IGROV-1 and in the assay with T47D was > 100 µM (inactive) in each case. For the same compound, the GI50 in the assay on HCT-116, in the assay with UACC-257, with NCI/ADR-RES, in the assay with SNB-19, in the assay with HOP-62 and with PC-3 was > 100 µM (inactive) throughout. For the same compound, the GI50 in the assay on OVCAR-5 was > 100 µM (inactive).
Turning to `CCOC(=O)[C@@]12C[C@](/C=C/OC)(O[Si](C)(C)C)[C@@]13c1cc(OC)c(OC)cc1CCN3C(=O)C2=O`, the GI50 in the assay on HCT-15 was over 100 µM; in the assay on UO-31, > 100 µM (inactive); in the assay on OVCAR-3 it was > 100 µM (inactive); in the assay on ACHN, > 100 µM (inactive); with EKVX, > 100 µM (inactive); in the assay on BT-549 it was > 100 µM (inactive). Further, the GI50 in the assay on MOLT-4, with M14, with OVCAR-4, with MDA-MB-231, in the assay with IGROV-1 and in the assay on T47D was > 100 µM (inactive) throughout. Moreover, the GI50 in the assay with HCT-116, with UACC-257, with NCI/ADR-RES, in the assay on SNB-19, in the assay on HOP-62 and in the assay on PC-3 was > 100 µM (inactive) throughout. The GI50 in the assay with OVCAR-5 was > 100 µM (inactive).
`CC(C)c1c(O)ccc2c1CCC1C(C)(C)CCCC21C` (stereo not drawn): the GI50 with HCT-15 was 18.9 µM; in the assay on UO-31 it was 17.4 µM (inactive); in the assay with OVCAR-3 it was 18.6 µM (inactive); in the assay with ACHN, 17.1 µM (inactive); in the assay with EKVX it was 17.3 µM (inactive); in the assay on BT-549, 18.5 µM (inactive). Further, the GI50 was 19.1 µM (inactive) in the assay with MOLT-4; 16.2 µM (inactive) in the assay on M14; 17.5 µM (inactive) in the assay with OVCAR-4; 19 µM (inactive) with MDA-MB-231; 16.3 µM (inactive) in the assay with IGROV-1; 0.0173 µM (active) with T47D. The GI50 in the assay with NCI-H522 is 16.9 µM (inactive); in the assay with HCT-116 it was 17.2 µM (inactive); in the assay with UACC-257, 17.7 µM (inactive); in the assay with NCI/ADR-RES, 16.9 µM (inactive); with SNB-19 it was 18.2 µM (inactive); in the assay on PC-3, 17.6 µM (inactive). Further, the GI50 with OVCAR-5 was 14.6 µM (inactive).
With `S=C1SSC2N=CC=CC12` (stereo not drawn), the GI50 in the assay on HCT-15 was 57.8 µM; in the assay with UO-31 it was > 100 µM (inactive); in the assay with OVCAR-3 it was > 100 µM (inactive); in the assay with ACHN, > 100 µM (inactive); in the assay on EKVX, > 100 µM (inactive); in the assay with BT-549, > 100 µM (inactive). The GI50 in the assay on MOLT-4 was 38.3 µM (inactive); with M14 it was 85.5 µM (inactive); in the assay with OVCAR-4, 16.2 µM (inactive); in the assay with MDA-MB-231, > 100 µM (inactive); with IGROV-1, 78.7 µM (inactive); in the assay on T47D it was 93.5 µM (inactive). Moreover, the GI50 in the assay with NCI-H522 is 68.9 µM (inactive); with HCT-116 it was 92.9 µM (inactive); in the assay on UACC-257, > 100 µM (inactive); with NCI/ADR-RES, > 100 µM (inactive); with SNB-19 it was > 100 µM (inactive); with PC-3 it was 63.4 µM (inactive). Also, the GI50 with OVCAR-5 is > 100 µM (inactive).
On to `CC(=O)OCC1OC(N2C(C)=C(C(C)=O)C(c3ccc(Cl)cc3)C(C#N)=C2S)C(OC(C)=O)C(OC(C)=O)C1OC(C)=O` (stereo not drawn), for which the GI50 in the assay with HCT-15 was 41.3 µM; in the assay with UO-31, 36.8 µM (inactive); in the assay on OVCAR-3 it was 61.4 µM (inactive); in the assay with ACHN it was 77.8 µM (inactive); in the assay on BT-549 it was 62.4 µM (inactive); with MOLT-4, 18.6 µM (inactive). Also, the GI50 with M14 was 56.8 µM (inactive); in the assay on OVCAR-4 it was 51.6 µM (inactive); in the assay on MDA-MB-231, 87.5 µM (inactive); in the assay on IGROV-1, 57.5 µM (inactive); in the assay with T47D, 24.5 µM (inactive); in the assay with NCI-H522 it was 32.4 µM (inactive). In addition, the GI50 in the assay on HCT-116 is 36.7 µM (inactive); with UACC-257, 48.8 µM (inactive); in the assay on NCI/ADR-RES it was 8.71 µM (inactive); with SNB-19, > 100 µM (inactive); in the assay on HOP-62, > 100 µM (inactive); with PC-3, 36 µM (inactive). In addition, the GI50 in the assay with OVCAR-5 was > 100 µM (inactive).
As to `COc1cc(C2S/C(=C/c3ccccc3)C(=O)N2c2cccc([N+](=O)[O-])c2)cc(OC)c1OC` (stereo not drawn), the GI50 with HCT-15 is 71.9 µM; with UO-31, 94.6 µM (inactive); with ACHN it was > 100 µM (inactive); in the assay on EKVX, 50 µM (inactive); in the assay with BT-549, > 100 µM (inactive); in the assay with MOLT-4 it was 70.3 µM (inactive). Besides, the GI50 was 72.1 µM (inactive) in the assay with M14; 83.2 µM (inactive) with OVCAR-4; 51.8 µM (inactive) in the assay with MDA-MB-231; 0.156 µM (active) in the assay with T47D; 38.5 µM (inactive) in the assay with NCI-H522; 36.2 µM (inactive) in the assay with HCT-116. Moreover, the GI50 was > 100 µM (inactive) with UACC-257; 42.2 µM (inactive) in the assay on NCI/ADR-RES; > 100 µM (inactive) in the assay with SNB-19; > 100 µM (inactive) with HOP-62; > 100 µM (inactive) with PC-3; > 100 µM (inactive) in the assay on OVCAR-5.
For the compound `CC(NC(=O)C1CCCN1C(=O)CNC(=O)OC(C)(C)C)C(=O)O` (stereo not drawn) (Boc-Gly-Pro-Ala-OH; configuration not given here), the GI50 was over 100 µM in the assay with HCT-15; > 100 µM (inactive) in the assay on UO-31; > 100 µM (inactive) in the assay on OVCAR-3; > 100 µM (inactive) in the assay with ACHN; > 100 µM (inactive) in the assay with EKVX; > 100 µM (inactive) in the assay with BT-549. The GI50 with MOLT-4, with M14, with MDA-MB-231, with IGROV-1, with T47D and in the assay on NCI-H522 was > 100 µM (inactive) each time. The GI50 in the assay on UACC-257, with NCI/ADR-RES, in the assay on SNB-19, with HOP-62, with PC-3 and in the assay on OVCAR-5 was > 100 µM (inactive) throughout.
Regarding `SCCSCCCSCCS`, the GI50 with HCT-15 was over 100 µM; in the assay with UO-31 it was 15.7 µM (inactive); with OVCAR-3 it was 76.4 µM (inactive); with EKVX, > 100 µM (inactive); with BT-549, 53.3 µM (inactive); in the assay with MOLT-4, 4.97 µM (inactive). The GI50 in the assay on M14 is 74.6 µM (inactive); in the assay on OVCAR-4, 14 µM (inactive); in the assay on MDA-MB-231, 91.6 µM (inactive); in the assay with IGROV-1, 49.2 µM (inactive); with T47D, 50.2 µM (inactive); in the assay on NCI-H522 it was 19.3 µM (inactive). Also, the GI50 is > 100 µM (inactive) in the assay on HCT-116; 59.3 µM (inactive) in the assay with UACC-257; > 100 µM (inactive) in the assay on NCI/ADR-RES; 71.9 µM (inactive) in the assay with SNB-19; > 100 µM (inactive) in the assay on HOP-62; 20 µM (inactive) with PC-3. Besides, the GI50 in the assay with OVCAR-5 was > 100 µM (inactive).
